{
  "source": "paper PMC11233931",
  "about": "“Remodeling tumor‐associated macrophage for anti‐cancer effects by rational design of irreversible inhibition of mitogen‐activated protein kinase‐activated protein kinase 2” (MedComm, 2024)",
  "assay_in_all_cases": "Eurofins kinase selectivity profile against 380 other human recombinant kinases (Table S2)",
  "format_in_all_cases": "biochemical",
  "key": {"[1]": {"biological_target": "T1, 380 human recombinant protein kinases (Homo sapiens, UniProt O43781)", "T1 construct": "purchased Eurofins (Celle Lévescault)", "T1 sequence (O43781 1-588)": "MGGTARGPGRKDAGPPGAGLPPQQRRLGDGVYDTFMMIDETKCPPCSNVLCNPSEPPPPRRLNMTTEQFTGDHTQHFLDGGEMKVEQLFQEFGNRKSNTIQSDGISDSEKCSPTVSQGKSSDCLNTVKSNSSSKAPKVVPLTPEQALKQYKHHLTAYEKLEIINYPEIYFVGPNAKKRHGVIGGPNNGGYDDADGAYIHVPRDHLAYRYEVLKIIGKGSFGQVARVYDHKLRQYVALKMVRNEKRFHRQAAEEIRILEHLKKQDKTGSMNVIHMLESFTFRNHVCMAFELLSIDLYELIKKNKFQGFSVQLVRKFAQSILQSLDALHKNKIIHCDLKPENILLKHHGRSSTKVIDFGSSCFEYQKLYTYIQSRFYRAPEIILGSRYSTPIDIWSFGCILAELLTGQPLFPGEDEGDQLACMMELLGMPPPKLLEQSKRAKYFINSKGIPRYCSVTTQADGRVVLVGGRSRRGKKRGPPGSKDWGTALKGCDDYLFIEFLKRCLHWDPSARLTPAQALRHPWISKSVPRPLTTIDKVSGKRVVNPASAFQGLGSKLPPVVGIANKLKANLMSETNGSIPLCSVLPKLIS", "settings": "DYRK3(h), read-out: Inhibition rate", "how_it_was_run": "(§1)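 Commercial selectivity screen of the test compound against a panel of 380 human recombinant protein kinases, run by an outside contractor at several compound concentrations to check whether its potency was specific for MK2.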"}, "[2]": {"biological_target": "T2, 380 human recombinant protein kinases (Homo sapiens, UniProt O75460)", "T2 construct": "purchased Eurofins (Celle Lévescault)", "T2 sequence (O75460 19-977)": "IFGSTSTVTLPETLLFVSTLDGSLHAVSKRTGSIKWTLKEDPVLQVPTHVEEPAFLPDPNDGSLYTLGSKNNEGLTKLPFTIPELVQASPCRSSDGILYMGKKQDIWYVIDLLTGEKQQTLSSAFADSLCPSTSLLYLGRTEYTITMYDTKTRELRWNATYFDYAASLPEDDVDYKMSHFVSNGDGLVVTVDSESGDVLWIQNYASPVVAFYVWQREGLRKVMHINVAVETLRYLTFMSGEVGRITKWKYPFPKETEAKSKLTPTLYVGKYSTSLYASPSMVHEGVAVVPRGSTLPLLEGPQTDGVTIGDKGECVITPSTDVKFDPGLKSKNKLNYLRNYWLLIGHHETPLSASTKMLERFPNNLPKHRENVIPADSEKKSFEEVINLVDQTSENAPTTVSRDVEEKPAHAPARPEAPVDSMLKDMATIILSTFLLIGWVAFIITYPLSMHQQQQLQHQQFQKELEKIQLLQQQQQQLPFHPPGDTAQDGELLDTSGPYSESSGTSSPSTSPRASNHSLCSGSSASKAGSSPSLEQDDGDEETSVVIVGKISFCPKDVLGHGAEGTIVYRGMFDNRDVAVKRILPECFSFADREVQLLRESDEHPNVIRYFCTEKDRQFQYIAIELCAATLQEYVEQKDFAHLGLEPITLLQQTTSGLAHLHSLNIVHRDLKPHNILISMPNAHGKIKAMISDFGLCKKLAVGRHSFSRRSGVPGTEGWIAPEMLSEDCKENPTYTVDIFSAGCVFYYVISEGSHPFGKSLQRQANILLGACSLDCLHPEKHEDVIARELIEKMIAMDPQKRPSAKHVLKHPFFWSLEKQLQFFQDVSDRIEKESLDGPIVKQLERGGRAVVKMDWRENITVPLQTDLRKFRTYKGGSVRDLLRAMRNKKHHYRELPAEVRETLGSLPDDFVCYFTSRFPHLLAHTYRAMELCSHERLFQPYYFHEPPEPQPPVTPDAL", "settings": "IRE1(h), read-out: Inhibition rate", "how_it_was_run": "as §1"}, "[3]": {"biological_target": "T3, 380 human recombinant protein kinases (Homo sapiens, UniProt O75582)", "T3 construct": "purchased Eurofins (Celle Lévescault)", "T3 sequence (O75582 whole entry)": "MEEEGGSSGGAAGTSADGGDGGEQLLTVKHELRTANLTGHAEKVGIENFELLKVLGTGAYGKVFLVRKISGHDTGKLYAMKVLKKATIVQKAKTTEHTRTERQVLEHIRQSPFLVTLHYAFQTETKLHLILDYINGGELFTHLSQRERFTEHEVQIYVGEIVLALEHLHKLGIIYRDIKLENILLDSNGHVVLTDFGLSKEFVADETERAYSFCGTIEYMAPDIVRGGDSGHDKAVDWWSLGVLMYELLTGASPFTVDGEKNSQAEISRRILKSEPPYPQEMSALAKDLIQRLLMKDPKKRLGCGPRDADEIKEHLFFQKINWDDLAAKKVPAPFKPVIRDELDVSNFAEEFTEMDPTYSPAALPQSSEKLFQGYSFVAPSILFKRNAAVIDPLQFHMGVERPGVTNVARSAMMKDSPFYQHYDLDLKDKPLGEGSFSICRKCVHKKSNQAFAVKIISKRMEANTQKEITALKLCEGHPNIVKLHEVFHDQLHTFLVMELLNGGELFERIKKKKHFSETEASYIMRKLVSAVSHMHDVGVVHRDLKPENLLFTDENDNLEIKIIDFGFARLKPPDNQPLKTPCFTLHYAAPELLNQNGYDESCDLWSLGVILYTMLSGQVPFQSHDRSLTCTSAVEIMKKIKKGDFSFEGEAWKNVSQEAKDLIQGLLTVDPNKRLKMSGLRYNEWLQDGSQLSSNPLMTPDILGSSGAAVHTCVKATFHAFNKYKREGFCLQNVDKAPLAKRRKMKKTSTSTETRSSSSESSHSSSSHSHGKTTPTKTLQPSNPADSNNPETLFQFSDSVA", "settings": "MSK1(h), read-out: Inhibition rate", "how_it_was_run": "as §1"}, "[4]": {"biological_target": "T4, 380 human recombinant protein kinases (Homo sapiens, UniProt O75676)", "T4 construct": "purchased Eurofins (Celle Lévescault)", "settings": "MSK2(h), read-out: Inhibition rate", "how_it_was_run": "as §1"}, "[5]": {"biological_target": "T5, 380 human recombinant protein kinases (Homo sapiens, UniProt P07948)", "T5 construct": "purchased Eurofins (Celle Lévescault)", "settings": "Lyn(h), read-out: Inhibition rate", "how_it_was_run": "as §1"}, "[6]": {"biological_target": "T6, 380 human recombinant protein kinases (Homo sapiens, UniProt P08922)", "T6 construct": "purchased Eurofins (Celle Lévescault)", "T6 sequence (P08922 28-2347)": "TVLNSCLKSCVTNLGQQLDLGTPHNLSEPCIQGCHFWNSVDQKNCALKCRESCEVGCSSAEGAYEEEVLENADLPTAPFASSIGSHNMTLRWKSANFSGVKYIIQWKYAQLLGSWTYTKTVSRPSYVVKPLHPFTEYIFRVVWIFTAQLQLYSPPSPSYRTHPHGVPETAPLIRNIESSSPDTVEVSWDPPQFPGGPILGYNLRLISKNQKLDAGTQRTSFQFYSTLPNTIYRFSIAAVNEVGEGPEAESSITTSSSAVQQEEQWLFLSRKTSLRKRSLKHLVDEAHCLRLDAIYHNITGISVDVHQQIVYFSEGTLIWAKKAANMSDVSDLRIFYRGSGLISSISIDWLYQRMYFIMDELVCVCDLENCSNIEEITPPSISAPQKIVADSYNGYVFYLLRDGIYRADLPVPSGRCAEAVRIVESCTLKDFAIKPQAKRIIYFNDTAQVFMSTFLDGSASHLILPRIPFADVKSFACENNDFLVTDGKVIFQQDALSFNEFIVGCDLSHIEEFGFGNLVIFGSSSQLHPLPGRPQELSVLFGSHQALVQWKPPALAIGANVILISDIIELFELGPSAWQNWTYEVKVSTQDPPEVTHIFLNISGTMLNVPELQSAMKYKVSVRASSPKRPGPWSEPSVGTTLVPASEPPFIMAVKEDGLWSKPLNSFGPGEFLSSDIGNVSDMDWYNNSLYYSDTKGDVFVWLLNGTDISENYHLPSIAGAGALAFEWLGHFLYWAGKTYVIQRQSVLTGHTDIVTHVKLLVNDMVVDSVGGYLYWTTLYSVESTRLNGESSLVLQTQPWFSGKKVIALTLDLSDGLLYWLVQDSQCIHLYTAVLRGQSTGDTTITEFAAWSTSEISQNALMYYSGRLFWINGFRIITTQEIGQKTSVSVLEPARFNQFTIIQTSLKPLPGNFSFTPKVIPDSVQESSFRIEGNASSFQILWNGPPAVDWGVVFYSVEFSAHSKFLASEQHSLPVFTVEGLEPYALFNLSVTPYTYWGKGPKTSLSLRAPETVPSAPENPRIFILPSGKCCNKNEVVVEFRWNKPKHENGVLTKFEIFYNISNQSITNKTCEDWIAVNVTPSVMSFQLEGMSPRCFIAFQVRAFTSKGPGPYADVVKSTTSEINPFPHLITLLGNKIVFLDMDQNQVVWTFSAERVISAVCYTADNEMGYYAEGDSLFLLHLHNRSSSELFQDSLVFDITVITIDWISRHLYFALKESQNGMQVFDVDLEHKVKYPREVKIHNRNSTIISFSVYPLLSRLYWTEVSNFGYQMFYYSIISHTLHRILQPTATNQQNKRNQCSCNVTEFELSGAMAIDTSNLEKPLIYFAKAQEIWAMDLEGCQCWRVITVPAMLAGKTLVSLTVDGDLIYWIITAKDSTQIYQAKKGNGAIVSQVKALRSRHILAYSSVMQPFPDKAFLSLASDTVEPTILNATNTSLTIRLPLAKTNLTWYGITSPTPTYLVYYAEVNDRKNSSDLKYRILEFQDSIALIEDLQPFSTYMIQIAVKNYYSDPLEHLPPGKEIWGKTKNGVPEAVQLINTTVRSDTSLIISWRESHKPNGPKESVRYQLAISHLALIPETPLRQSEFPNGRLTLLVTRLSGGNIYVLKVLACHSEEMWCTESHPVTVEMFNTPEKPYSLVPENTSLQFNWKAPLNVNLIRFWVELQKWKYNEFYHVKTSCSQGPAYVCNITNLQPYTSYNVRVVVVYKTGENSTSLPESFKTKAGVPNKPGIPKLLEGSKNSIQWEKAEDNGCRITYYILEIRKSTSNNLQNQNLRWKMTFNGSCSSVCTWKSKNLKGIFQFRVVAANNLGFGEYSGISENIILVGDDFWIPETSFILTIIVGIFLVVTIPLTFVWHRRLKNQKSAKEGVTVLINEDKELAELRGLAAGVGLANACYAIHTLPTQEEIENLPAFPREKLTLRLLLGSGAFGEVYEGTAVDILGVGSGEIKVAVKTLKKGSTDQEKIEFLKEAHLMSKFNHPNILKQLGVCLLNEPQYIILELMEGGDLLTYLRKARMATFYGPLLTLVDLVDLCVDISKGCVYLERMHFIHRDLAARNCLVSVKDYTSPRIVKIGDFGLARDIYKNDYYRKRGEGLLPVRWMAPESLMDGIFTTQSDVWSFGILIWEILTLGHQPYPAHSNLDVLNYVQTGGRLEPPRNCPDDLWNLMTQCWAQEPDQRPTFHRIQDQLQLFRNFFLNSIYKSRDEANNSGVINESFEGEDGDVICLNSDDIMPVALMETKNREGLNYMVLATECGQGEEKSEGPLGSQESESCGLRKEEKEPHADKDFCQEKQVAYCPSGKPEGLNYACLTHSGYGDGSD", "settings": "Ros(h), read-out: Inhibition rate", "how_it_was_run": "as §1"}, "[7]": {"biological_target": "T7, 380 human recombinant protein kinases (Homo sapiens, UniProt P17948)", "T7 construct": "purchased Eurofins (Celle Lévescault)", "settings": "Flt1(h), read-out: Inhibition rate", "how_it_was_run": "as §1"}, "[8]": {"biological_target": "T8, 380 human recombinant protein kinases (Homo sapiens, UniProt P28482)", "T8 construct": "purchased Eurofins (Celle Lévescault)", "T8 sequence (P28482 whole entry)": "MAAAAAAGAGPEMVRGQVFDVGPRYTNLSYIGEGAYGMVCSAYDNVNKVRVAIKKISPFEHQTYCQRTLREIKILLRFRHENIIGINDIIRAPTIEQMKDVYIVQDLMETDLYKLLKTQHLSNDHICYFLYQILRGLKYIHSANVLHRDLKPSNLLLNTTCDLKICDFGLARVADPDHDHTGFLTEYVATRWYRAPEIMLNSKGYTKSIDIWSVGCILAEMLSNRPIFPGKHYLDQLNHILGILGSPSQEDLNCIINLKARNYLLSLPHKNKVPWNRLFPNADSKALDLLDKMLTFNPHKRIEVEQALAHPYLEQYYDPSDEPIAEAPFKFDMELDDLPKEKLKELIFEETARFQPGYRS", "settings": "MAPK2(h), read-out: Inhibition rate", "how_it_was_run": "as §1"}, "[9]": {"biological_target": "T9, 380 human recombinant protein kinases (Homo sapiens, UniProt P37173)", "T9 construct": "purchased Eurofins (Celle Lévescault)", "T9 sequence (P37173 23-567)": "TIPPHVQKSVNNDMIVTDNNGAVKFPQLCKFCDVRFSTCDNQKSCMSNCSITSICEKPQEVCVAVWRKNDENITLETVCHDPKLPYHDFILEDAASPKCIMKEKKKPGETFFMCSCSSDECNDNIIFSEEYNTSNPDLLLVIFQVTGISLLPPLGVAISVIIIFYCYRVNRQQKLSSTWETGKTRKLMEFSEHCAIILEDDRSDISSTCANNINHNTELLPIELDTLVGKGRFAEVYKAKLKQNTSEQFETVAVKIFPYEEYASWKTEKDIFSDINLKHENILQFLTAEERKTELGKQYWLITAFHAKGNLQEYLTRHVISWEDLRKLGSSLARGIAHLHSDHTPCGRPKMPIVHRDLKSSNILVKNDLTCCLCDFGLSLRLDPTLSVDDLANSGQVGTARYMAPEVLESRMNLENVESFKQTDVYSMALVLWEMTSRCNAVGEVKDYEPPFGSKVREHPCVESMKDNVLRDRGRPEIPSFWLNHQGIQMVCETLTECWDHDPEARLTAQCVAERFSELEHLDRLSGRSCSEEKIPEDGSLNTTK", "settings": "TGFBR2(h), read-out: Inhibition rate (%)", "how_it_was_run": "as §1"}, "[10]": {"biological_target": "T10, 380 human recombinant protein kinases (Homo sapiens, UniProt Q9H1R3)", "T10 construct": "purchased Eurofins (Celle Lévescault)", "settings": "MYLK2(h), read-out: Inhibition rate", "how_it_was_run": "as §1"}, "[11]": {"biological_target": "T11, 380 human recombinant protein kinases (Homo sapiens, UniProt Q9H2X6)", "T11 construct": "purchased Eurofins (Celle Lévescault)", "settings": "HIPK2(h), read-out: Inhibition rate", "how_it_was_run": "as §1"}, "[12]": {"biological_target": "T12, 380 human recombinant protein kinases (Homo sapiens, UniProt Q9P286)", "T12 construct": "purchased Eurofins (Celle Lévescault)", "settings": "PAK5(h), read-out: Inhibition rate", "how_it_was_run": "as §1"}, "[13]": {"biological_target": "T13, 380 human recombinant protein kinases (Homo sapiens, UniProt Q9UBE8)", "T13 construct": "purchased Eurofins (Celle Lévescault)", "T13 sequence (Q9UBE8 1-527)": "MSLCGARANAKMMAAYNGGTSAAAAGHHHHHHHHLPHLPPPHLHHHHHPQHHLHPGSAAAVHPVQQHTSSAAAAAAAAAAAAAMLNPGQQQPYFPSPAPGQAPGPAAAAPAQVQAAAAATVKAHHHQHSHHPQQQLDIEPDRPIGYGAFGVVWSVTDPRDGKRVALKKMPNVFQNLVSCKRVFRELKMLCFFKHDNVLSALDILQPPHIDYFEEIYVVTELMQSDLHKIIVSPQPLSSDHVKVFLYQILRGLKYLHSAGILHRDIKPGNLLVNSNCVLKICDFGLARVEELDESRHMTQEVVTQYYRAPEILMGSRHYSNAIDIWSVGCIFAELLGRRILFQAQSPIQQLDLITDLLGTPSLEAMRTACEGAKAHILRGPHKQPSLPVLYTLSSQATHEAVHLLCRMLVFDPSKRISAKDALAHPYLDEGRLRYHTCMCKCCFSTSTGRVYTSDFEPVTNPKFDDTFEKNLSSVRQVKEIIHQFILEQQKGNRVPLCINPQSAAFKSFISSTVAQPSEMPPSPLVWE", "settings": "NLK(h), read-out: Inhibition rate", "how_it_was_run": "as §1"}},
  "data": [
    {"compound": "C=CC(=O)Nc1cc(-c2cc(-c3cc4c([nH]3)CCNC4=O)ccn2)ccc1OC(F)(F)F", "note": "[compound 11]", "values": [
      {"measurement": "inhibition at 0.01 µM", "setting": "[1]; 10 nM", "result": 34, "unit": "%"},
      {"measurement": "inhibition at 0.1 µM", "setting": "[1]; 100 nM", "result": 83, "unit": "%"},
      {"measurement": "inhibition at 1 µM", "setting": "[1]; 1000 nM", "result": 95, "unit": "%"},
      {"measurement": "inhibition at 0.01 µM", "setting": "[2]; 10 nM", "result": 0, "unit": "%"},
      {"measurement": "inhibition at 0.1 µM", "setting": "[2]; 100 nM", "result": -2, "unit": "%"},
      {"measurement": "inhibition at 1 µM", "setting": "[2]; 1000 nM", "result": 0, "unit": "%"},
      {"measurement": "inhibition at 0.01 µM", "setting": "[3]; 10 nM", "result": -11, "unit": "%"},
      {"measurement": "inhibition at 0.1 µM", "setting": "[3]; 100 nM", "result": -12, "unit": "%"},
      {"measurement": "inhibition at 1 µM", "setting": "[3]; 1000 nM", "result": -11, "unit": "%"},
      {"measurement": "inhibition at 0.01 µM", "setting": "[4]; 10 nM", "result": -8, "unit": "%"},
      {"measurement": "inhibition at 0.1 µM", "setting": "[4]; 100 nM", "result": -5, "unit": "%"},
      {"measurement": "inhibition at 1 µM", "setting": "[4]; 1000 nM", "result": -13, "unit": "%"},
      {"measurement": "inhibition at 0.01 µM", "setting": "[5]; 10 nM", "result": -1, "unit": "%"},
      {"measurement": "inhibition at 0.1 µM", "setting": "[5]; 100 nM", "result": -11, "unit": "%"},
      {"measurement": "inhibition at 1 µM", "setting": "[5]; 1000 nM", "result": -11, "unit": "%"},
      {"measurement": "inhibition at 0.01 µM", "setting": "[6]; 10 nM", "result": 1, "unit": "%"},
      {"measurement": "inhibition at 0.1 µM", "setting": "[6]; 100 nM", "result": 1, "unit": "%"},
      {"measurement": "inhibition at 1 µM", "setting": "[6]; 1000 nM", "result": 6, "unit": "%"},
      {"measurement": "inhibition at 0.01 µM", "setting": "[7]; 10 nM", "result": -24, "unit": "%"},
      {"measurement": "inhibition at 0.1 µM", "setting": "[7]; 100 nM", "result": -17, "unit": "%"},
      {"measurement": "inhibition at 1 µM", "setting": "[7]; 1000 nM", "result": -11, "unit": "%"},
      {"measurement": "inhibition at 0.01 µM", "setting": "[8]; 10 nM", "result": -5, "unit": "%"},
      {"measurement": "inhibition at 0.1 µM", "setting": "[8]; 100 nM", "result": -7, "unit": "%"},
      {"measurement": "inhibition at 1 µM", "setting": "[8]; 1000 nM", "result": 13, "unit": "%"},
      {"measurement": "inhibition at 0.01 µM", "setting": "[9]; 10 nM", "result": -11, "unit": "%"},
      {"measurement": "inhibition at 0.1 µM", "setting": "[9]; 100 nM", "result": 2, "unit": "%"},
      {"measurement": "inhibition at 1 µM", "setting": "[9]; 1000 nM", "result": 6, "unit": "%"},
      {"measurement": "inhibition at 0.01 µM", "setting": "[10]; 10 nM", "result": -2, "unit": "%"},
      {"measurement": "inhibition at 0.1 µM", "setting": "[10]; 100 nM", "result": 6, "unit": "%"},
      {"measurement": "inhibition at 1 µM", "setting": "[10]; 1000 nM", "result": 29, "unit": "%"},
      {"measurement": "inhibition at 0.01 µM", "setting": "[11]; 10 nM", "result": -13, "unit": "%"},
      {"measurement": "inhibition at 0.1 µM", "setting": "[11]; 100 nM", "result": -9, "unit": "%"},
      {"measurement": "inhibition at 1 µM", "setting": "[11]; 1000 nM", "result": 3, "unit": "%"},
      {"measurement": "inhibition at 0.01 µM", "setting": "[12]; 10 nM", "result": -2, "unit": "%"},
      {"measurement": "inhibition at 0.1 µM", "setting": "[12]; 100 nM", "result": -2, "unit": "%"},
      {"measurement": "inhibition at 1 µM", "setting": "[12]; 1000 nM", "result": -2, "unit": "%"},
      {"measurement": "inhibition at 0.01 µM", "setting": "[13]; 10 nM", "result": 6, "unit": "%"},
      {"measurement": "inhibition at 0.1 µM", "setting": "[13]; 100 nM", "result": 16, "unit": "%"},
      {"measurement": "inhibition at 1 µM", "setting": "[13]; 1000 nM", "result": 42, "unit": "%"}
    ]}
  ]
}
